Structures are written as SMILES.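 Briefly, cells in 96-well plates were exposed to five compound concentrations for 48 h, and endpoints were estimated by linear interpolation. TGI is the concentration that stops growth completely.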

The values that follow come from PubChem BioAssay (NCI).

Some test systems named below: NCI-H226 lung; HCT-15 colon; HCC-2998 colon; HCT-116 colon; T-47D breast; NCI-H23 lung; HL-60(TB) leukemia; KM12 colon; MOLT-4 leukemia; UACC-62 melanoma.
Common to all, as to assay: DTP human tumour cell line panel, 48 h

By TGI is commonly meant the concentration at which net growth stops. Read a low TGI as more potent growth arrest. For the compound `COc1ccc(CNC(=O)[C@H](Cc2ccc(O)cn2)NC(C)=O)cc1`, the TGI with NCI-H226 lung, in the experiment on HCT-15 colon, in the experiment on HCC-2998 colon, in the experiment on HCT-116 colon, in the experiment on T-47D breast and with NCI-H23 lung was more than 100 µM throughout. Besides, the TGI in the experiment with HL-60(TB) leukemia, in the experiment with KM12 colon, with MOLT-4 leukemia and in the experiment with UACC-62 melanoma was more than 100 µM in each case.
As for `NC(N)=NS(=O)(=O)c1ccc(NC(=O)c2ccc3[nH]c4ccccc4c(=O)c3c2)cc1`, the TGI in the experiment on NCI-H226 lung, in the experiment with HCT-15 colon, in the experiment on HCC-2998 colon, with HCT-116 colon, with T-47D breast and in the experiment on NCI-H23 lung was more than 100 µM each time. For the same compound, the concentration for total growth inhibition (TGI) with HL-60(TB) leukemia, in the experiment on KM12 colon, in the experiment on MOLT-4 leukemia and with UACC-62 melanoma was more than 100 µM throughout.
With `O=C(O)c1ccc(Nc2nc3cc(C(F)(F)F)ccc3nc2-c2ccccc2)cc1`, the TGI was 69.6 µM in the experiment with NCI-H226 lung; 30.6 µM in the experiment with HCT-15 colon; 34.4 µM with HCC-2998 colon; 84.5 µM in the experiment with HCT-116 colon; 35.1 µM in the experiment with T-47D breast; more than 100 µM in the experiment with NCI-H23 lung. Moreover, the TGI is more than 100 µM in the experiment with HL-60(TB) leukemia, 35.3 µM with KM12 colon, more than 100 µM in the experiment on MOLT-4 leukemia and 26.2 µM with UACC-62 melanoma.
In the case of `C=CCn1cnc2c(=O)[nH]c(Nc3ccccc3)nc21`, the TGI in the experiment with NCI-H226 lung, in the experiment on HCT-15 colon, in the experiment with HCC-2998 colon, in the experiment on HCT-116 colon, in the experiment with T-47D breast and in the experiment on HL-60(TB) leukemia was more than 100 µM throughout. Moreover, the TGI with KM12 colon, in the experiment with MOLT-4 leukemia and with UACC-62 melanoma was more than 100 µM in each case.
As for `COCCOCCOCCOc1ccc(C(C#N)N(CCc2ccccc2)C(=O)c2cc(C(=O)N(CCc3ccccc3)C(C#N)c3ccc(OCCOCCOCCOC)cc3)cc(C(=O)N(CCc3ccccc3)C(C#N)c3ccc(OCCOCCOCCOC)cc3)c2)cc1` (centres undefined), the TGI with NCI-H226 lung, with HCT-15 colon, with HCC-2998 colon, in the experiment with HCT-116 colon, in the experiment on T-47D breast and with NCI-H23 lung was more than 100 µM in each case. Also, the TGI with HL-60(TB) leukemia, in the experiment with KM12 colon, in the experiment with MOLT-4 leukemia and with UACC-62 melanoma was more than 100 µM throughout.
`CC(=O)O[C@@H]1O[Si](C(C)(C)C)(C(C)(C)C)[C@H](C)[C@H]1C`: the TGI with NCI-H226 lung, in the experiment on HCT-15 colon, in the experiment on HCC-2998 colon, in the experiment on HCT-116 colon, with T-47D breast and in the experiment on NCI-H23 lung was more than 100 µM each time. In addition, the TGI with HL-60(TB) leukemia was 44 µM; in the experiment on KM12 colon, more than 100 µM; with MOLT-4 leukemia it was 65.7 µM; with UACC-62 melanoma, more than 100 µM.
As to `O=S(=O)(OI(O)CC(F)(F)F)C(F)(F)F`, the TGI with NCI-H226 lung, in the experiment on HCT-15 colon, with HCC-2998 colon, in the experiment with HCT-116 colon, in the experiment with T-47D breast and in the experiment on NCI-H23 lung was more than 100 µM in each case. For the same compound, the TGI in the experiment with HL-60(TB) leukemia, in the experiment with KM12 colon, with MOLT-4 leukemia and in the experiment on UACC-62 melanoma was more than 100 µM in each case.
As to `CC1(C)CN=C(Nc2ccc(F)c(F)c2)S1`, the concentration for total growth inhibition (TGI) in the experiment with NCI-H226 lung, in the experiment on HCT-15 colon, in the experiment with HCC-2998 colon, with HCT-116 colon, in the experiment with T-47D breast and in the experiment with NCI-H23 lung was more than 100 µM in each case. The TGI in the experiment on HL-60(TB) leukemia, in the experiment with KM12 colon, with MOLT-4 leukemia and in the experiment on UACC-62 melanoma was more than 100 µM each time.
Take `CC(=O)Oc1c(C)c2c(c3ccccc13)OC(C)(C)C2`: the TGI in the experiment on NCI-H226 lung turned out to be 40.7 µM; in the experiment with HCT-15 colon, 30.6 µM; in the experiment on HCC-2998 colon, 32.7 µM; with HCT-116 colon, 42.9 µM; with T-47D breast, 60 µM; in the experiment with NCI-H23 lung it was 28 µM. The TGI in the experiment on HL-60(TB) leukemia is 69.6 µM; with KM12 colon, 27.6 µM; in the experiment on MOLT-4 leukemia, 37.1 µM; with UACC-62 melanoma it was 30.3 µM.
As to `NC(=O)C(Nc1ccc(Cl)cc1)c1cc2cc(Br)ccc2nc1Cl` (centres undefined), the TGI in the experiment on NCI-H226 lung, with HCT-15 colon, in the experiment with HCC-2998 colon, with HCT-116 colon, in the experiment on T-47D breast and with NCI-H23 lung was more than 50 µM throughout. Moreover, the TGI in the experiment with HL-60(TB) leukemia, in the experiment with KM12 colon, in the experiment with MOLT-4 leukemia and in the experiment on UACC-62 melanoma was more than 50 µM each time.
Regarding `N#Cc1c(N)c(C#N)c2c(c1-c1ccc(Cl)cc1)COc1ccccc1-2`, the TGI in the experiment on NCI-H226 lung was 98.9 µM; with HCT-15 colon, more than 100 µM; in the experiment on HCC-2998 colon, 54.9 µM; in the experiment with HCT-116 colon it was 40.7 µM; in the experiment with T-47D breast, 58.2 µM; in the experiment with NCI-H23 lung it was 39.9 µM. The TGI in the experiment on HL-60(TB) leukemia was 68.8 µM; in the experiment on KM12 colon, more than 100 µM; in the experiment with MOLT-4 leukemia, 25 µM; with UACC-62 melanoma, more than 100 µM.
With `Oc1ccc(-c2cn3cc(C(F)(F)F)ccc3n2)cc1`, the TGI in the experiment on NCI-H226 lung is more than 100 µM; in the experiment with HCT-15 colon, more than 100 µM; in the experiment on HCC-2998 colon it was 42.3 µM; in the experiment on HCT-116 colon it was more than 100 µM; in the experiment on T-47D breast, 60.7 µM; in the experiment on NCI-H23 lung it was more than 100 µM. Further, the TGI in the experiment on HL-60(TB) leukemia, in the experiment on KM12 colon, in the experiment on MOLT-4 leukemia and in the experiment with UACC-62 melanoma was more than 100 µM throughout.
For `CN(C)Cc1cc(N=Nc2ccc(Cl)cc2)ccc1O`, the total growth inhibition concentration (TGI) with NCI-H226 lung was found to be 30.3 µM; with HCT-15 colon, 29.1 µM; in the experiment with HCC-2998 colon, 28.6 µM; with HCT-116 colon, 31.2 µM; in the experiment with T-47D breast, 28.3 µM; in the experiment with NCI-H23 lung, 45.2 µM. In addition, the concentration for total growth inhibition (TGI) was determined as 32.1 µM in the experiment on HL-60(TB) leukemia, 34.5 µM in the experiment with KM12 colon, 31.8 µM in the experiment with MOLT-4 leukemia and 30.1 µM with UACC-62 melanoma.
